Experimental data published in patent US20230295109A1, “PYRIDINONE COMPOUNDS FOR THE TREATMENT OF AUTOIMMUNE DISEASE” (F. Hoffmann-La Roche AG, priority 2020, published 2023).
Where two headings read alike, the source gives them in different places. Blank lines part the entries; values can stand above or below the compound they belong to.

Assays:
[1] = Single dose pharmacokinetics (PK) study in male Wister-Han rats; type: in vivo
Protocol: Pharmacokinetic properties of selected compounds were assessed by single dose PK studies in Male Wister-Han Rats (vendor: Beijing Vital River Laboratory Animal Technology Co., Ltd). Briefly, two groups of animals were administered a single dose of respective compound intravenously (IV, bolus) at 2 mg/kg or orally (PO, by gavage) at 10 mg/kg. Blood samples (approximately 150 µL) were collected via Jugular vein at 5 min (only for IV), 15 min, 30 min, 1 h, 2 h, 4 h, 7 h and 24 h post-dose. Blood samples were placed into tubes containing EDTA-K2 anticoagulant and centrifuged at 3000 rpm for 15 min at 4° C. to separate plasma from the samples. After centrifugation, the resulting plasma was transferred to clean tubes for bioanalysis with LC/MS/MS. The pharmacokinetic parameters were calculated using non-compartmental analysis. The volume of distribution (Vss), half-life (T½) and clearance (CL) were obtained based on the plasma concentration-time curve after IV dose. The peak concentration (Cmax) was recorded directly from experimental observations after PO dose. The area under the plasma concentration-time curve (AUC0-last) was calculated using the linear trapezoidal rule up to the last detectable concentration. The bioavailability (F) was calculated based on the dose normalized AUC0-last after IV and PO dose.
The Vss of a drug represents the degree to which a drug is distributed in body tissue rather than the plasma. Vss is directly proportional with the amount of drug distributed into tissue. A higher Vss indicates a greater amount of tissue distribution.

TLR7 and TLR8 = experiment: Human PBMC cell-based assay, TLR7 and TLR8 (R848); conditions: R848 at 1 µg/mL, overnight, cytokine levels, read-out: hPBMC/TLR78 IC50
Source text: Unlike the HEK reporter cell lines, human peripheral blood mononuclear cell (PBMC) represents primary human immune cells in blood mainly consisting of lymphocytes, monocytes, and dendritic cells. These cells express TLR7, TLR8, or TLR9, and therefore are natural responders to respective ligand stimulation. Upon activation of these TLRs, PBMCs secrete similar cytokines and chemokines in vitro and in vivo, and therefore the in vitro potency of a TLR7/8/9 antagonist in human PBMC is readily translatable to its pharmacodynamics response in vivo.
Human peripheral blood mononuclear cells (PBMC) were isolated from freshly-drawn lithium-heparinized (Lithium Heparin Plus blood Collection tube, BD Vacutainer®) healthy donor whole blood by density gradient (Ficoll-PaqueTM PLUS, GE Healthcare life Sciences). Briefly, […] was diluted with 25 mL PBS (without Ca^2+, Mg^2+) in a 50 mL conical tube with porous barrier (Leucosep tube, Greiner bio-one), where 15.5 mL Ficoll-Paque was under laid after spinning. Tubes were centrifuged for 20 minutes at 800×g (1946 rpm) with the brake in the off position, and PBMC were collected from the buffy coat. Cells were then washed twice in PBS, and red blood cells were lysed by suspension in 2 mL (Red Blood Cell Lysis Buffer, Alfa Aesar) for 5-10 minutes at room temperature. After a final wash in PBS, PBMC were resuspended at a final concentration of 2×10^6 cells/mL in RPMI-1640 media with GlutaMAXTM (Gibco) supplemented with 10% Fetal Bovine Serum (Sigma) and plated at 150µL/well (3×10^5 cells/well) in tissue culture treated round bottom 96-well plates (Corning Incorporated). Antagonist compounds (compounds of this invention) solubilized and serial diluted in 100% DMSO were added in duplicate to cells to yield a final concentration of 1% DMSO (v/v). PBMC were incubated with antagonist compounds for 30 minutes at 37° C., 5% CO2 before adding various TLR agonist reagents in 48 µL complete media per well as follows (final concentrations indicated): CpG ODN 2216 (InvivoGen) at 1 µM for TLR9, ORN 06/LyoVec (InvivoGen) at 1 µg/mL for TLR8 and R848 (InvivoGen) at 1 µg/mL for TLR7 and TLR8. PBMC were incubated overnight at 37° C. with 5% CO2. Cell culture supernatants were collected, and levels of various human cytokines were assessed by Luminex assay (ProcartaPlexTM Multiplex Immunoassay, Invitrogen) or ELISA procedure according to the manufacturer’s recommended protocol (eBioscience, ThermoFisher Scientific). Viability of the cells was also checked with Cell Viability Assay (CellTiter Glo®Luminescent Cell Viability Assay, Promega).

Structure (SMILES): CCc1nc(N2CCN(Cc3cnc(N4CC5(CNCCO5)C4)nc3)CC2)ccc1-c1cc(C)c(=O)n(C)c1 [Example 1, 5-[2-ethyl-6-[4-[[2-(5-oxa-2,8-diazaspiro[3.5]nonan-2-yl)pyrimidin-5-yl]methyl]piperazin-1-yl]-3-pyridyl]-1,3-dimethyl-pyridin-2-one]
F ([1]; dose normalized AUC0-last after IV 2 mg/kg and PO 10 mg/kg): 40%
AUC(0-t) ([1]; rat, IV 2 mg/kg, plasma, read-out: IV AUC0-last): 873 ng·h/mL
Cmax ([1]; rat, PO 10 mg/kg, plasma): 151 ng/mL
AUC(0-t) ([1]; rat, PO 10 mg/kg, plasma, read-out: PO AUC0-last): 1750 ng·h/mL
clearance ([1]; rat, plasma, IV 2 mg/kg): 37 mL/min/kg
half-life ([1]; rat, plasma, IV 2 mg/kg, read-out: T½ (converted)): 3.78 h
Vd ([1]; rat, plasma, IV 2 mg/kg, read-out: Vss): 7.4 L/kg

Structure (SMILES): CCc1nc(N2CCN(Cc3cnc(N4CC(C)(N)C4)nc3)CC2)ccc1-c1cc(C)c(=O)n(C)c1 [Example 3, 5-[6-[4-[[2-(3-amino-3-methyl-azetidin-1-yl)pyrimidin-5-yl]methyl]piperazin-1-yl]-2-ethyl-3-pyridyl]-1,3-dimethyl-pyridin-2-one]
IC50 (TLR7 and TLR8): 21 nM

Other lines, results leading:

IC50 (TLR7 and TLR8): 7 nM
Structure (SMILES): CCc1nc(N2CCN(Cc3ccc(N4CC5(CNCCO5)C4)nc3)CC2)ccc1-c1cc(C)c(=O)n(C)c1 [Example 2, 5-[2-ethyl-6-[4-[[6-(5-oxa-2,8-diazaspiro[3.5]nonan-2-yl)-3 pyridyl]methyl]piperazin-1-yl]-3-pyridyl]-1,3-dimethyl-pyridin-2-one]

IC50 (TLR7 and TLR8): 0.4 nM
Structure (SMILES): Cc1cc(-c2ccc(N3CCN(Cc4cnc(N5CCNCC5)nc4)CC3)nc2C(C)C)cn(C)c1=O [Example 9, 5-[2-isopropyl-6-[4-[(2-piperazin-1-ylpyrimidin-5-yl)methyl]piperazin-1-yl]-3-pyridyl]-1,3-dimethyl-pyridin-2-one]

IC50 (TLR7 and TLR8): 12 nM
Structure (SMILES): Cc1cc(-c2ccc(N3CCN(Cc4ncc(N5CCNCC5)cn4)CC3)nc2C(C)C)cn(C)c1=O [Example 12, 5-[2-isopropyl-6-[4-[(5-piperazin-1-ylpyrimidin-2-yl)methyl]piperazin-1-yl]-3-pyridyl]-1,3-dimethyl-pyridin-2-one]

IC50 (TLR7 and TLR8): 2 nM
Structure (SMILES): Cc1cc(-c2ccc(N3CCN4CCN(c5ccc(N6CCNCC6)nc5)CC4C3)nc2C(C)C)cn(C)c1=O (stereo not drawn) [Example 16, 5-[2-isopropyl-6-[8-(6-piperazin-1-yl-3-pyridyl)-3,4,6,7,9,9a-hexahydro-1H-pyrazino[1,2-a]pyrazin-2-yl]-3-pyridyl]-1,3-dimethyl-pyridin-2-one]
